We go through 17 compounds from patent publication US12459952B2, “TREM2 modulators” (Muna Therapeutics ApS, priority 2024, dated 2025).

In this test the target is T1, Human TREM2 (Homo sapiens, UniProt Q9NZC2).
T1 construct: expressed in transfected cells
Nature of the test: Human TREM2 cellular phospho-Syk AlphaLISA assay in HEK293/DAP12+TREM2 stable cell line. It is filed as cell-based. The note with it: HEK293/DAP12+TREM2 cells; for Emax: maximal response relative to the maximal response of the reference agonist, phospho-Syk AlphaLISA; for EC50: phospho-Syk (Tyr525/526) AlphaLISA signal, 30 min incubation. The source says:
Human TREM2, in vitro Measurement of Triggering Receptor Expressed on Myeloid Cells 2 activity using cellular phosphorylation of Spleen Tyrosine Kinase (“Syk”) Assay
HEK-293 cells were co-transfected with separate plasmids encoding TREM2 and DAP12 to generate a stable cell line. After antibiotic selection, functional clone pool analysis and two successive limiting dilutions, the final clone “HEK293/DAP12+TREM2” underwent a qPCR analysis and a pharmacological validation.
TREM2 signaling through DAP12 was monitored in the HEK293/DAP12+TREM2 stable cell line by measuring the phosphorylation levels of the Syk kinase using the commercially available AlphaLISA SureFire Ultra p-SYK (Tyr525/526) Assay Kit (PerkinElmer #ALSU-PSYK), based on the Perkin Elmer AlphaScreen/AlphaLISA technology.
Compounds are transferred to the test plate and tested in full dose response, 8 concentrations in quadruplicate data points. Compound serial dilutions were performed at Cybi-Felix instrument in 100% DMSO and the dose response curves were assembled in automated fashion in 384MPT at Hamilton STARlet instrument. All the stock solutions were prepared at 20 mM in 100% DMSO. For compounds testing, the starting concentration was 100 μM, dilution steps 1:6. A different concentration's range was adapted for compound's activity based on the preliminary results. Finally, a 384MPT reformatted for all compounds at 8 concentrations, quadruplicates, was used as “mother to child” process with a CyBi@-Well dispenser in which 1 μL of each compound was moved into a destination plate pre-filled with […] of EMEM cell culture medium (BIOWHITTAKER_cat.BE12-125F), thus obtaining 3× concentrated compounds working solution. In columns 1-2 and 23-24 the control wells were added. In particular, dose response curves of a reference control agonist were included in column 1 and 24 as reference control agonist (Reference control agonists used include Human TREM2 polyclonal Antibody AF1828: R&D Systems; Human TREM2 monoclonal Antibody MAB1828: R&D Systems). The dose response curves were tested starting at 30 μM, dilution step 1:6. Both “source” compound plate and “destination” compound plate were barcoded and a relationship between the two plates was thus generated.
HEK293/DAP12+TREM2 cells were cultured in EMEM medium supplemented with IX Penicillin/Streptomycin (BIOWHITTAKER_cat.DE17-602E), ULTRAGLUTAMINE I 200 mM, 10% Fetal Bovine Serum plus antibiotics referred to as “HEK293 Culture Medium”. The day before the experiment, cells were detached by gentle wash with DPBS, followed by 5 min incubation at 37° C. with Trypsin solution. Cells were then diluted in HEK293 Culture Medium without antibiotics, counted and seeded into 384-well poly-D-Lysine coated microplates black/clear bottom (GREINER 781946) at a density of 10,000 cells/well in 25 μL/well by the use of a MATRIX WellMate dispenser. Plates were placed into a humidified cell culture incubator at 37° C. with 5% CO2 until the experimental day. 20-24 hours after seeding mature medium was removed and replaced with 10 μL/well of EMEM cell medium supplemented with 0.1% Pluronic F-68 non-ionic surfactant (Thermofisher, 24040032), referred to as “Assay Buffer”, using the CyBi@-Well instrument. Then 5 μL/well of Assay Buffer containing 3× concentrated test compounds or the reference control agonist (in 0.5% final DMSO concentration) were added to the cells with the CyBi@-Well instrument. Cell plates were incubated for 30 min into a humidified cell culture incubator at 37° C. with 5% CO2, then the medium was removed by manually discard. 20 μL/well of lysis buffer were dispensed using the CyBi@-Well instrument and plates were incubated for 10 min at room temperature on a plate shaker (350 rpm). Then, 10 μL/well of lysate were transferred to the Alpha plates.
The CyBi@-Well instrument was used to dispense 5 μL/well of AlphaLISA Acceptor Bead Solution in IX Immunoassay buffer (Perkin Elmer AL000F). […]

T1 sequence (Q9NZC2 19-230): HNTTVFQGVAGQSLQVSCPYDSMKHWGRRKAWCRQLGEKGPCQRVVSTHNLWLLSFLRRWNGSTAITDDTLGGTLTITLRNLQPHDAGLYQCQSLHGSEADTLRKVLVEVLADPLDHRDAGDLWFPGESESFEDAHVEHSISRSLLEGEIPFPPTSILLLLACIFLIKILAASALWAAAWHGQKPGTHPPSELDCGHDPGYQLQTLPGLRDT
T1 sequence (O43914 22-113 partner): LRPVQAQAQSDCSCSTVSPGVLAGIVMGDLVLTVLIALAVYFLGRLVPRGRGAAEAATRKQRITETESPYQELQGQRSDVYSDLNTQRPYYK

`Cn1c(C(F)(F)F)nc2c(-c3ccc(C#N)cc3F)nc(N3CC(Oc4cnnc(Cl)c4)C3)nc2c1=O` [Example 26, 4-(2-(3-((6-chloropyridazin-4-yl)oxy)azetidin-1-yl)-7-methyl-8-oxo-6-(trifluoromethyl)-7,8-dihydropyrimido[5,4-d]pyrimidin-4-yl)-3-fluorobenzonitrile]: the Emax is under 75% and the EC50 was in the range of 100 to 1000 nM.

Compound `Cc1cc(CC2CN(c3nc(-c4ccc(F)cc4F)c4nc(C(F)(F)F)n(C)c(=O)c4n3)C2)ccn1` [Example 34, 8-(2,4-difluorophenyl)-3-methyl-6-(3-((2-methylpyridin-4-yl)methyl)azetidin-1-yl)-2-(trifluoromethyl)pyrimido[5,4-d]pyrimidin-4(3H)-one] registered a maximal effect (Emax) of under 75% and a concentration for a half-maximal effect (EC50) of 10 to 100 nM.

Turning to `Cn1c(C(F)(F)F)nc2c(-c3ccc(C#N)cc3F)nc(N3CC(Oc4cnn(CC(F)F)c4)C3)nc2c1=O` [Example 17, 4-(2-(3-((1-(2,2-difluoroethyl)-1H-pyrazol-4-yl)oxy)azetidin-1-yl)-7-methyl-8-oxo-6-(trifluoromethyl)-7,8-dihydropyrimido[5,4-d]pyrimidin-4-yl)-3-fluorobenzonitrile], the Emax lay in the range of 75 to 110% and the 50% effective concentration (EC50) was 100 to 1000 nM.

As for `Cc1cc(OC2CN(c3nc(-c4ccc(F)cc4F)c4nc(C(F)(F)F)n(C)c(=O)c4n3)C2)ccn1` [Example 30, 8-(2,4-difluorophenyl)-3-methyl-6-(3-((2-methylpyridin-4-yl)oxy)azetidin-1-yl)-2-(trifluoromethyl)pyrimido[5,4-d]pyrimidin-4(3H)-one], the Emax lay in the range of 75 to 110% and the EC50 is 10 to 100 nM.

Regarding `CN(c1cnn(C2CC2)c1)C1CN(c2nc(-c3ccc(F)cc3F)c3nc(C(F)(F)F)n(C)c(=O)c3n2)C1` [Example 33, 6-(3-((1-cyclopropyl-1H-pyrazol-4-yl)(methyl)amino)azetidin-1-yl)-8-(2,4-difluorophenyl)-3-methyl-2-(trifluoromethyl)pyrimido[5,4-d]pyrimidin-4(3H)-one], the Emax lay in the range of 75 to 110% and the EC50 lay within 100 to 1000 nM.

Turning to `CCCn1cc(OC2CN(c3nc(-c4ccc(C#N)cc4F)c4nc(C(F)(F)F)n(C)c(=O)c4n3)C2)cn1` [Example 12, 3-fluoro-4-(7-methyl-8-oxo-2-(3-((1-propyl-1H-pyrazol-4-yl)oxy)azetidin-1-yl)-6-(trifluoromethyl)-7,8-dihydropyrimido[5,4-d]pyrimidin-4-yl)benzonitrile], the maximum response (Emax) lay in the range of 75 to 110% and the EC50 was in the range of 100 to 1000 nM.

On to `Cn1c(C(F)(F)F)nc2c(-c3ccc(C#N)cc3F)nc(N3CC(Oc4cnn(CC(F)(F)F)c4)C3)nc2c1=O` [Example 19, 3-fluoro-4-(7-methyl-8-oxo-2-(3-((1-(2,2,2-trifluoroethyl)-1H-pyrazol-4-yl)oxy)azetidin-1-yl)-6-(trifluoromethyl)-7,8-dihydropyrimido[5,4-d]pyrimidin-4-yl)benzonitrile], for which the Emax fell in the range of 75 to 110% and the 50% effective concentration (EC50) was 10 to 100 nM.

`Cn1c(C(F)(F)F)nc2c(-c3ccc(C#N)cc3F)nc(N3CC(Oc4ccnc(C(F)(F)F)c4)C3)nc2c1=O` [Example 25, 3-fluoro-4-(7-methyl-8-oxo-6-(trifluoromethyl)-2-(3-((2-(trifluoromethyl)pyridin-4-yl)oxy)azetidin-1-yl)-7,8-dihydropyrimido[5,4-d]pyrimidin-4-yl)benzonitrile] had an Emax of 75 to 110% and an EC50 of 10 to 100 nM.

In turn, `CCc1nnc(OC2CN(c3nc(-c4ccc(C#N)cc4F)c4nc(C(F)(F)F)n(C)c(=O)c4n3)C2)s1` [Example 4, 4-(2-(3-((5-ethyl-1,3,4-thiadiazol-2-yl)oxy)azetidin-1-yl)-7-methyl-8-oxo-6-(trifluoromethyl)-7,8-dihydropyrimido[5,4-d]pyrimidin-4-yl)-3-fluorobenzonitrile] displayed a maximal effect (Emax) of 75 to 110% and an EC50 of 100 to 1000 nM.

`Cn1c(C(F)(F)F)nc2c(-c3ccc(C#N)cc3F)nc(N3CC(Oc4ccnc(C5CC5)c4)C3)nc2c1=O` [Example 22, 4-(2-(3-((2-cyclopropylpyridin-4-yl)oxy)azetidin-1-yl)-7-methyl-8-oxo-6-(trifluoromethyl)-7,8-dihydropyrimido[5,4-d]pyrimidin-4-yl)-3-fluorobenzonitrile] showed a maximum response (Emax) of 75 to 110% and an EC50 of 10 to 100 nM.

Take `Cn1c(C(F)(F)F)nc2c(-c3ccc(C#N)cc3)nc(N3CC(Oc4cnn(C5CC5)c4)C3)nc2c1=O` [Example 35, 4-(2-(3-((1-cyclopropyl-1H-pyrazol-4-yl)oxy)azetidin-1-yl)-7-methyl-8-oxo-6-(trifluoromethyl)-7,8-dihydropyrimido[5,4-d]pyrimidin-4-yl)benzonitrile]: the Emax was 75 to 110% and the EC50 lay within 10 to 100 nM.

On to `Cn1ncc(OC2CN(c3nc(-c4ccc(C#N)cc4F)c4nc(C(F)(F)F)n(C)c(=O)c4n3)C2)c1Cl` [Example 13, 4-(2-(3-((5-chloro-1-methyl-1H-pyrazol-4-yl)oxy)azetidin-1-yl)-7-methyl-8-oxo-6-(trifluoromethyl)-7,8-dihydropyrimido[5,4-d]pyrimidin-4-yl)-3-fluorobenzonitrile], for which the Emax fell in the range of 75 to 110% and the EC50 was 100 to 1000 nM.

For the compound `Cc1cncc(OC2CN(c3nc(-c4ccc(C#N)cc4F)c4nc(C(F)(F)F)n(C)c(=O)c4n3)C2)n1` [Example 6, 3-fluoro-4-(7-methyl-2-(3-((6-methylpyrazin-2-yl)oxy)azetidin-1-yl)-8-oxo-6-(trifluoromethyl)-7,8-dihydropyrimido[5,4-d]pyrimidin-4-yl)benzonitrile], the maximum response (Emax) is under 75% and the half-maximal effective concentration (EC50) lay within 100 to 1000 nM.

Turning to `Cn1c(C(F)(F)F)nc2c(-c3ccc(C#N)cc3F)nc(N3CC(Oc4cnn(CC5CC5)c4)C3)nc2c1=O` [Example 15, 4-(2-(3-((1-(cyclopropylmethyl)-1H-pyrazol-4-yl)oxy)azetidin-1-yl)-7-methyl-8-oxo-6-(trifluoromethyl)-7,8-dihydropyrimido[5,4-d]pyrimidin-4-yl)-3-fluorobenzonitrile], the maximum response (Emax) is over 110% and the EC50 lay in the range of 10 to 100 nM.

Compound `Cn1c(C(F)(F)F)nc2c(-c3ccc(F)cc3F)nc(N3CC(Oc4cnn(C5CC5)c4)C3)cc2c1=O` [Example 40, 6-(3-((1-cyclopropyl-1H-pyrazol-4-yl)oxy)azetidin-1-yl)-8-(2,4-difluorophenyl)-3-methyl-2-(trifluoromethyl)pyrido[3,4-d]pyrimidin-4(3H)-one] had an Emax of under 75% and an EC50 of 100 to 1000 nM.

Consider `Cn1c(C(F)(F)F)nc2c(-c3ccc(C#N)cc3F)nc(N3CC(Oc4cnn(C5CCCC5)c4)C3)nc2c1=O` [Example 18, 4-(2-(3-((1-cyclopentyl-1H-pyrazol-4-yl)oxy)azetidin-1-yl)-7-methyl-8-oxo-6-(trifluoromethyl)-7,8-dihydropyrimido[5,4-d]pyrimidin-4-yl)-3-fluorobenzonitrile], for which the Emax is 75 to 110% and the 50% effective concentration (EC50) was under 10 nM.

As to `Cn1c(C(F)(F)F)nc2c(-c3ccc(C#N)nc3)nc(N3CC(Oc4cnn(C5CC5)c4)C3)nc2c1=O` [Example 38, 5-(2-(3-((1-cyclopropyl-1H-pyrazol-4-yl)oxy)azetidin-1-yl)-7-methyl-8-oxo-6-(trifluoromethyl)-7,8-dihydropyrimido[5,4-d]pyrimidin-4-yl)picolinonitrile], the Emax was 75 to 110% and the EC50 fell in the range of 100 to 1000 nM.
